Results as given in patent US12398138B2, “FGFR inhibitor compound in solid form and preparation method therefor” (CSPC ZHONGQI PHARMACEUTICAL TECHNOLOGY (SHIJIAZHUANG) CO., …, priority 2019, dated 2025).
Where two headings read alike, the source gives them in different places.

How the values were obtained:
[1] = Hygroscopicity by dynamic vapor sorption (DVS); type: physicochemical; settings: 25° C. and 80% RH
Description: Dynamic Vapor Sorption (DVS)
Test condition: Approximately 10-15 mg of sample was used for DVS detection.
Equilibrating dm/dt: 0.01%/min: (time: 10 min-180 min (maximum))
RH (%) measuring gradient: 10%
Range of RH (%) measuring gradient: 0%-90%-0%
The evaluation criteria was as follows:
SMS DVS Advantage dynamic vapor adsorption instrument
10-15 mg of the crystal form B of the compound of Formula (I) was taken and placed on a DVS sample pan for test.

FGFR3 (K650M) = target: T1, FGFR3 (K650M) (Homo sapiens, UniProt P22607, K650M); test: 33P isotope-labeled kinase activity assay, mutant FGFR3 (K650M); type: biochemical; settings: ATP 2.5 μM
T1 construct: purchased Carna Biosciences Carna 08-199
T1 sequence (P22607 23-806 K650M): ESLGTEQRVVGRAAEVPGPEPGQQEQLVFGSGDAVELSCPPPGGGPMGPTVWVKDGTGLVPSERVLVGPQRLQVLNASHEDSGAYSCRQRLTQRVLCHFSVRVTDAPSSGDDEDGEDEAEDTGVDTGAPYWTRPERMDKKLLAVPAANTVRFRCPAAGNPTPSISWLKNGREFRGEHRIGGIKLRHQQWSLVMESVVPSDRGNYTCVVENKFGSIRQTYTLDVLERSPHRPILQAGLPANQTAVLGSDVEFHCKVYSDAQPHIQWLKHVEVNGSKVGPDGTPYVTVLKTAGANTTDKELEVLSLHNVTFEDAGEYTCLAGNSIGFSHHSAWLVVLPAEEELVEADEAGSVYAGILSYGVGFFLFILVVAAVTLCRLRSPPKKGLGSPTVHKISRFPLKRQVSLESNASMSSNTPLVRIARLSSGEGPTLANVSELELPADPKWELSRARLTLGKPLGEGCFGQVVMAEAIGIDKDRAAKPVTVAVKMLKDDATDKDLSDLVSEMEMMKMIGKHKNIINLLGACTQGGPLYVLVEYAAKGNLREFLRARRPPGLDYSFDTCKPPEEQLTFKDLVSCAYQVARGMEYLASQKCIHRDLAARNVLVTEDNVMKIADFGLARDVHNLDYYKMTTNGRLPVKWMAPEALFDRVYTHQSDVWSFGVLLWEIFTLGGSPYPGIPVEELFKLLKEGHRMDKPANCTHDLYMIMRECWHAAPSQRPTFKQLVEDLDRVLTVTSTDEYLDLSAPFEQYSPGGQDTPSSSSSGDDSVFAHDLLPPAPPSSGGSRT
Description: (§1) IC50 was determined by using ^33P isotope-labeled kinase activity assay (Reaction Biology Corp), to evaluate the inhibitory ability of the test compound against mutant FGFR.
(§2) Test procedures: At room temperature, test compound was dissolved in DMSO to prepare a 10 mM solution. The substrate was dissolved in a freshly prepared buffer, to which the test kinase was added and well mixed. By using acoustic technology (Echo 550), the solution of the test compound in DMSO was added into the well-mixed reaction solution, to allow a compound concentration in reaction solution to be 10 μM, 3.33 μM, 1.11 μM, 0.370 μM, 0.123 μM, 41.2 nM, 13.7 nM, 4.57 nM, 1.52 nM, 0.508 nM, or to be 10 μM, 2.50 μM, 0.62 μM, 0.156 μM, 39.1 nM, 9.8 nM, 2.4 nM, 0.61 nM, 0.15 nM, 0.038 nM. After 15 minutes of incubation, ^33P-ATP (having an activity of 0.01 μCi/μl, and corresponding concentrations were given in Table 5) was added to start the reaction. […] After washing the filter paper with a 0.75% phosphoric acid solution repeatedly, the radioactivity of the phosphorylated substrate left on the filter paper was measured. The kinase activity data was expressed by comparing the kinase activity of the test compound with that of blank group (containing DMSO only), and IC50 was determined by curve fitting with Prism4 software (GraphPad).

FGFR3 (V555M) = target: T2, FGFR3 (V555M) (Homo sapiens, UniProt P22607, V555M); test: 33P isotope-labeled kinase activity assay, mutant FGFR3 (V555M); type: biochemical; settings: ATP 20 μM
T2 construct: purchased SignalChem F06-12GG
T2 sequence (P22607 23-806 V555M): as the sequence (P22607 23-806 K650M) above, with V533M, M628K counted along it
Description: as §1, §2

human FGFR4 = target: T3, human FGFR4 (Homo sapiens, UniProt P22455); test: 33P isotope-labeled kinase activity assay, wild type FGFR4; type: biochemical; settings: ATP 100 μM
T3 construct: purchased Invitrogen P3054
T3 sequence (P22455 22-802): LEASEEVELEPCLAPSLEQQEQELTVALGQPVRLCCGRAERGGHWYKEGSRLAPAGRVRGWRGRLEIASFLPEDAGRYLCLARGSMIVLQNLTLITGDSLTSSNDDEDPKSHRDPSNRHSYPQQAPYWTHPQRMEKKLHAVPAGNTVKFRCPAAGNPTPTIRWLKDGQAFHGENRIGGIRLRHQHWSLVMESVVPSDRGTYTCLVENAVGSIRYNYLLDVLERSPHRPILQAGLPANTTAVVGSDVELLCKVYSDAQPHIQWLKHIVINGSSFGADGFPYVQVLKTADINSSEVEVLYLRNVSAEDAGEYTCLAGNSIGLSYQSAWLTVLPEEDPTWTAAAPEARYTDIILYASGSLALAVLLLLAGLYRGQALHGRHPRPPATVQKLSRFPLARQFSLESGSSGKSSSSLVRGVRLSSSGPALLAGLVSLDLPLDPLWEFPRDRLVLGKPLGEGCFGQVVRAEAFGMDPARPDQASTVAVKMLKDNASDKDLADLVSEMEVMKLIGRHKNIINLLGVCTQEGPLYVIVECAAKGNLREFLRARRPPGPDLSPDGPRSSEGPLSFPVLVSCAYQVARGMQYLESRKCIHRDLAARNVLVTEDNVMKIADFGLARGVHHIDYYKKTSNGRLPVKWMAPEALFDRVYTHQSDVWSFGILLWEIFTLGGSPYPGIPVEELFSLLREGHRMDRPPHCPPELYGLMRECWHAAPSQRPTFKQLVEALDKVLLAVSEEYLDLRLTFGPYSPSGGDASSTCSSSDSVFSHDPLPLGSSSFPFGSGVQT
Description: (§3) IC50 was determined by using ^33P isotope-labeled kinase activity assay (Reaction Biology Corp), to evaluate the inhibitory ability of the test compound against human FGFR1 and FGFR4.
(§4) Buffer conditions: 20 mM Hepes (pH 7.5), 10 mM MgCl2, 1 mM EGTA, 0.02% Brij35, 0.02 mg/mL BSA, 0.1 mM Na3VO4, 2 mM DTT, and 1% DMSO.
(§5) Test procedures: At room temperature, the compound of Formula (I) was dissolved in DMSO to prepare a 10 mM solution. The substrate was dissolved in a freshly prepared buffer, and added with the test kinase and well mixed. By using acoustic technology (Echo 550), the solution of the test compound in DMSO was added into the above well-mixed reaction solution, to allow a compound concentration in reaction solution to be 10 μM, 3.33 μM, 1.11 μM, 0.370 μM, 0.123 μM, 41.2 nM, 13.7 nM, 4.57 nM, 1.52 nM, and 0.508 nM, or to be 10 μM, 2.50 μM, 0.62 μM, 0.156 μM, 39.1 nM, 9.8 nM, 2.4 nM, 0.61 nM, 0.15 nM, and 0.038 nM. After 15 minutes of incubation, ^33P-ATP (having an activity of 0.01 μCi/μl, and corresponding concentrations were given in Table 3) was added to start the reaction. Information about FGFR1, FGFR4 and their substrate's supplier, catalog number and lot number, as well as their concentration in the reaction solution, was listed in Table 3. […]

FGFR2 (E565G) = target: T4, FGFR2 (E565G) (Homo sapiens, UniProt P21802, E565G); test: 33P isotope-labeled kinase activity assay, mutant FGFR2 (E565G); type: biochemical; settings: ATP 10 μM
T4 construct: purchased Signal Chem F05-12CG
T4 sequence (P21802 22-821 E565G): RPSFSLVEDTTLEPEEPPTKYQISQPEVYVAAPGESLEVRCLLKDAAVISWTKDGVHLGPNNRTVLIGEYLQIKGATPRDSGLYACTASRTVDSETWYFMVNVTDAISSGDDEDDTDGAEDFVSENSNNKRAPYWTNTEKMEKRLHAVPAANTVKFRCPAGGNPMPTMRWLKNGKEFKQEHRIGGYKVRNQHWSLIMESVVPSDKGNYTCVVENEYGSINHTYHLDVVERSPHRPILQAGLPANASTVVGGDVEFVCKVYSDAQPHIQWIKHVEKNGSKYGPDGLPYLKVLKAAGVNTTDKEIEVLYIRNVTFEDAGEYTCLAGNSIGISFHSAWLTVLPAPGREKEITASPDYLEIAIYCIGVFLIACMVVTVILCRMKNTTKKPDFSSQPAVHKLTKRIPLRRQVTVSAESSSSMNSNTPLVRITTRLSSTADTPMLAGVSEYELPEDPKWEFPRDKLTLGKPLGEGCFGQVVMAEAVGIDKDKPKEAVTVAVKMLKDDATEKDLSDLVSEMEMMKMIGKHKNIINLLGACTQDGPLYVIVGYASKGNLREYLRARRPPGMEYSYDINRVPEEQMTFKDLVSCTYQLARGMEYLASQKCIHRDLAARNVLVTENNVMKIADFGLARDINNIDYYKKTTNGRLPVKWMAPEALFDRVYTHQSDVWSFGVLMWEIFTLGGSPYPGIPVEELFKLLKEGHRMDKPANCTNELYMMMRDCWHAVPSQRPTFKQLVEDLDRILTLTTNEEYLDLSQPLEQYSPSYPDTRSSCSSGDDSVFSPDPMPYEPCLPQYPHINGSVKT
Description: as §1, §2

[2] = Pharmacokinetic investigation in dogs; type: in vivo; settings: male, dog, plasma, beagle dogs; for AUC: read-out: Concentration integral AUC; for half-life: read-out: Half-life T1/2 (converted); for bioavailability: read-out: Bioavailability F
Text: The experiments aimed to test the pharmacokinetics of the test compound in beagle dogs.
Two beagle dogs were selected as one group. The compound was formulated into a designated preparation. The vehicle for intravenous injection was a mixture of DMSO: polyethylene glycol […] (PEG400): saline=10:40:50 (volume ratio) or a mixture of 10% DMSO/10% solutol/80% water. The vehicle for oral administration was a mixture of 0.5% methylcellulose (MC)+0.2% Tween. Each animal was given the preparation intragastrically at a predetermined dosage.
Whole blood samples, each about 500 μL, were collected from the cephalic vein or saphenous vein at […], namely 5 minutes, 15 minutes, 30 minutes, 1 hour, 2 hours, 4 hours, 6 hours, 8 hours, 12 hours and 24 hours after the animals were administered.
The […] was put into a centrifuge tube containing anticoagulant, and centrifuged at 3000 g for 10 min at 4° C. The plasma supernatant was frozen quickly on dry ice, and then kept in a frige at −70±10° C. until LC-MS/MS analysis was performed.
The plasma concentration of the compound was processed using a non-compartmental model by WinNonlin™ Version 6.3.0 (Pharsight, Mountain View, Calif.) pharmacokinetic software. The peak concentration (Cmax), time of maximum plasma concentration (Tmax), and time of the last quantifiable concentration, were determined directly from the curve of plasma concentration−time.
The following pharmacokinetic parameters: half-life time of elimination phase (T½), the mean residence time of the drug in the body from time 0 to the end timepoint (MRT0-last), the mean residence time of the drug in the body from time 0 to infinite time (MRT0-inf), area under the plasma concentration-time curve from time 0 to the end timepoint (AUC0-last), area under plasma concentration-time curve from time 0 to infinite time (AUC0-inf), were calculated using the log-linear trapezoidal method.
For the individual plasma concentration below the detection line, when it appeared before Tmax, it was calculated as 0; when it appeared after Tmax, it was directly excluded. All parameters and ratios were reported in the form of three significant figures.
In these experiments, the pharmacokinetic parameters were calculated based on the theoretical blood collection time and theoretical administration concentration in the embodiments.

FGFR1 (V561M) = target: T5, FGFR1 (V561M) (Homo sapiens, UniProt P11362, V561M); test: 33P isotope-labeled kinase activity assay, mutant FGFR1 (V561M); type: biochemical; settings: ATP 10 μM
T5 construct: purchased Signal Chem F04-13G
T5 sequence (P11362 22-822 V561M): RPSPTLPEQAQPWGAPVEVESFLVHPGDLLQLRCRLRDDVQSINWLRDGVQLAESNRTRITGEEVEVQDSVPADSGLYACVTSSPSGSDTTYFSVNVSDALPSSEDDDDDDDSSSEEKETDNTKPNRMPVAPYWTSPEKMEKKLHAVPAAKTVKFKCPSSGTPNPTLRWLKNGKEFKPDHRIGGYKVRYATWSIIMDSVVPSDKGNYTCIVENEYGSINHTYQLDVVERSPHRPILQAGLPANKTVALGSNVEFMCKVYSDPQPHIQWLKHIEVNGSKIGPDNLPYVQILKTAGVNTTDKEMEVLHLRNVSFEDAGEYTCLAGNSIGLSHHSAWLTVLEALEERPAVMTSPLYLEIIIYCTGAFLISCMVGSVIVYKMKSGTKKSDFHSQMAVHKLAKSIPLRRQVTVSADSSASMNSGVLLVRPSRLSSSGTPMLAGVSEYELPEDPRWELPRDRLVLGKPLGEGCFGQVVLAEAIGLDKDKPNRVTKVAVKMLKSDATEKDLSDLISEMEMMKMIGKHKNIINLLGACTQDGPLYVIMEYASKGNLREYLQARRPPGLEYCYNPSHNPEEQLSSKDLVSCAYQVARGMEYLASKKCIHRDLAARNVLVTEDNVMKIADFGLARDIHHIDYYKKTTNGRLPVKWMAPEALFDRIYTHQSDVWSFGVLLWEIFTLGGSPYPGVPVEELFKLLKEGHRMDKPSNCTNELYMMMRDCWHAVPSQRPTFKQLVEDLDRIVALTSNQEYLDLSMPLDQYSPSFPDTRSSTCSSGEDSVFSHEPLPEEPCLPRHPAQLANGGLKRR
Description: as §1, §2

FGFR2 (N549H) = target: T6, FGFR2 (N549H) (Homo sapiens, UniProt P21802, N549H); test: 33P isotope-labeled kinase activity assay, mutant FGFR2 (N549H); type: biochemical; settings: ATP 50 μM
T6 construct: purchased Millipore 14-742
T6 sequence (P21802 22-821 N549H): as the sequence (P21802 22-821 E565G) above, with N528H, G544E counted along it
Description: as §1, §2

human FGFR1 = target: T7, human FGFR1 (Homo sapiens, UniProt P11362); test: 33P isotope-labeled kinase activity assay, wild type FGFR1; type: biochemical; settings: ATP 5 μM
T7 construct: purchased Invitrogen PV3146
T7 sequence (P11362 22-822): as the sequence (P11362 22-822 V561M) above, with M540V counted along it
Description: as §3, §4, §5

FGFR4 (V550M) = target: T8, FGFR4 (V550M) (Homo sapiens, UniProt P22455, V550M); test: 33P isotope-labeled kinase activity assay, mutant FGFR4 (V550M); type: biochemical; settings: ATP 2.5 μM
T8 construct: purchased Signal Chem F07-12DG
T8 sequence (P22455 22-802 V550M): as the sequence (P22455 22-802) above, with V529M counted along it
Description: as §1, §2

FGFR2 (V564F) = target: T9, FGFR2 (V564F) (Homo sapiens, UniProt P21802, V564F); test: 33P isotope-labeled kinase activity assay, mutant FGFR2 (V564F); type: biochemical; settings: ATP 20 μM
T9 construct: purchased SignalChem F05-12FG
T9 sequence (P21802 22-821 V564F): as the sequence (P21802 22-821 E565G) above, with V543F, G544E counted along it
Description: as §1, §2

FGFR4 (N535K) = target: T10, FGFR4 (N535K) (Homo sapiens, UniProt P22455, N535K); test: 33P isotope-labeled kinase activity assay, mutant FGFR4 (N535K); type: biochemical; settings: ATP 2.5 μM
T10 construct: purchased Carna Biosciences Carna 08-524
T10 sequence (P22455 22-802 N535K): as the sequence (P22455 22-802) above, with N514K counted along it
Description: as §1, §2

[3] = 1 mg/kg, intravenous administration (1 mpk)
[4] = 5 mg/kg, oral administration (5 mpk)

weight gain caused by moisture-adsorption ΔW [1] [%]	IC50 (FGFR3 (K650M)) [nM]	IC50 (FGFR3 (V555M)) [nM]	IC50 (human FGFR4) [nM]	IC50 (FGFR2 (E565G)) [nM]	AUC [2, 3] [µM·h]	AUC [2, 4] [µM·h]	IC50 (FGFR1 (V561M)) [nM]	IC50 (FGFR2 (N549H)) [nM]	IC50 (human FGFR1) [nM]	IC50 (FGFR4 (V550M)) [nM]	IC50 (FGFR2 (V564F)) [nM]	IC50 (FGFR4 (N535K)) [nM]	SMILES	hygroscopicity classification [1]	clearance [2, 3] [mL/min/kg]	half-life [2, 3] [h]	bioavailability [2, 4] [%]
0.1928													C=CC(=O)N1CC[C@H](c2cc(-c3cc4cc(C)cc(OC)c4s3)c3c(N)ncnn23)C1	no or almost no hygroscopicity (weight gain caused by moisture is less than 0.2%.)			
	0.2	7.3	0.2	0.1	4.13	18.2	38	0.5	0.2	5.6	33	34	C=CC(=O)N1CC[C@H](c2cc(-c3cc4cc(C)cc(OC)c4s3)c3c(N)ncnn23)C1 [compound represented by Formula (I)]		9.4	3	88
													C=CC(=O)N1CC[C@H](n2nc(C#Cc3cc(OC)cc(OC)c3)c3c(N)ncnc32)C1 [reference compound 1, reference compound]		17	0.8	41
